Values quoted from earlier work in patent publication US20150366189A1, “DRY MELT COATING PROCESS AND FORMULATION FOR VOLATILE COMPOUNDS” (AGROFRISH INC., priority 2013, published 2015).

Settings: enclosed space

In the case of `CC1=CC1` [Experiment 1-MCP, 1-Methylcyclopropene], the “concentration threshold above which 1-MCP is flammable” value is listed as > 13,300 ppm.
